# Measured values: patent US20110039763A1, “TARGETED ANTIMICROBIAL MOIETIES” (C3 JIAN, INC., priority 2009, published 2011)
# How the values were obtained:
# microorganisms [1] = test: Peptide activities: targeting/binding, antimicrobial, growth or phenotype altering (Tables 7, 8); type: cell-based; details: peptides having multiple activities
# Excerpt: In certain embodiments, peptides described herein can have multiple activities. Thus for example, a peptide can have both binding/targeting activity and antimicrobial activity. Such peptides can be used, e.g., in a chimeric construct, for any or all of these properties. Thus, for example, a peptide designated “B” in Table 8 can be used as a targeting peptide. If it is also designated G or M it can also be used for antimicrobial activity.
# Table 8. Peptides Having Multiple Activities. B: Targeting/Binding Activity; M: Antimicrobial Activity; G: GROWTH or Phenotype Altering.
# microorganisms [2] = test: Morphology, biofilm and growth disrupting peptides (Table 5); type: cell-based; parameters: key: A: Peptide aggregates; B: Less hyphal formation; Clumps; Diffuse clumps and small polyps; F: Diffuse growth; H: Thin; I: Growth inhibition; Microcolony formation; Rippled; Small polyps; Thick; W: Halo formation on top, microlonies on bottom
# Excerpt: In certain embodiments peptides that induce alterations in phenotype or other biological activities can also be used as antimicrobial effector moieties.
# microorganisms [3] = test: Targeting peptide binding to target microorganisms (Tables 3, 10, 12); details: microorganism(s) the targeting peptide binds; binding in aqueous buffers varied with peptide solubility, preferably 1x PBS
Substance,Activities (microorganisms [1]),"Organism, effect: MRSA (microorganisms [2]; MRSA)","Organism, effect: S. epidermidis (microorganisms [2]; S. epidermidis)","Organism, effect: M. luteus (microorganisms [2]; M. luteus)","Organism, effect: C. jeikeium (microorganisms [2])",also measured
ALCSVIKAIELGIINVHLQ [PF-366],G B,MRSA (D),S. epidermidis (R),,,"Organism, effect: C. jejuni (microorganisms [2]): C. jejuni (D); Organism, effect: E. coli (microorganisms [2]): E. coli (C); Organism, effect: E. faecalis (microorganisms [2]): E. faecalis (C); Organism, effect: P. aeruginosa (microorganisms [2]): P. aeruginosa (A); Organism, effect: S. pneumoniae (microorganisms [2]; S. pneumoniae): S. pneumoniae (C)"
EILNNNQVIKELTMKYKTQFESNLGGWTARARR [PF-580],G B,,,,,"Organism, effect (microorganisms [2]; M. luteus): M. luteus (C); Organism, effect (microorganisms [2]; MRSA): MRSA (M); Organism, effect (microorganisms [2]; S. epidermidis): S. epidermidis (M); Organism, effect (microorganisms [2]; S. pneumoniae): S. pneumoniae (C)"
MGIIAGIIKVIKSLIEQFTGK [PF-007],G B,MRSA (R),S. epidermidis (A),M. luteus (A),,"Organism, effect: E. coli (microorganisms [2]): E. coli (A); Organism, effect: E. faecalis (microorganisms [2]): E. faecalis (A)"
MIHLTKQNTMEALHFIKQFYDMFFILNFNV [PF-040],G B,MRSA (D),S. epidermidis (D),M. luteus (D),C. jeikeium (D),"Organism, effect: B. subtilis (microorganisms [2]): B. subtilis (D); Organism, effect: C. jejuni (microorganisms [2]): C. jejuni (D); Organism, effect: E. coli (microorganisms [2]): E. coli (C); Organism, effect: P. mirabilis (microorganisms [2]; P. mirabilis): P. mirabilis (C); Organism, effect: S. mutans (microorganisms [2]; S. mutans, class symbol): S. mutans (F); Organism, effect: S. pneumoniae (microorganisms [2]; S. pneumoniae): S. pneumoniae (D)"
PF-001: peptide having multiple activities (MNNWIIVAQLSVTVINEIIDIMKEKQKGGK; Peptide with targeting and/or antimicrobial activity),G B,MRSA (R),S. epidermidis (C),M. luteus (C),C. jeikeium (D),
PF-004: peptide having multiple activities (ARLSKAIIIAVIVVYHLDVRGLF; Peptide with targeting and/or antimicrobial activity),G B,MRSA (R),S. epidermidis (A),M. luteus (A),C. jeikeium (A),
PF-012: peptide having multiple activities (WRGPNTEAGGKSANNIVQVGGAPT; Peptide with targeting and/or antimicrobial activity),G B,MRSA (R),S. epidermidis (S),M. luteus (C),C. jeikeium (A),
PF-022: peptide having multiple activities (MINELKNKNSGIMNNYVVTKESKL; Peptide with targeting and/or antimicrobial activity),G B,MRSA (R),S. epidermidis (D),M. luteus (A),C. jeikeium (A),
PF-030: peptide having multiple activities (MTCHQAPTTTHQSNMA; Peptide with targeting and/or antimicrobial activity),G B,MRSA (R),S. epidermidis (D),M. luteus (C),C. jeikeium (C),
PF-042: peptide having multiple activities (LLLSYFRYTGALLQSLF; Peptide with targeting and/or antimicrobial activity),G B,MRSA (R),S. epidermidis (D),M. luteus (C),C. jeikeium (S),
PF-057: peptide having multiple activities (TMIVISIPRFEEYMKARHKKWM; Peptide with targeting and/or antimicrobial activity),G B,MRSA (M),S. epidermidis (D),M. luteus (C),C. jeikeium (A),"Organism, effect: C. albicans (microorganisms [2]; C. albicans): C. albicans (A); Organism, effect: C. jejuni (microorganisms [2]): C. jejuni (D); Organism, effect: E. coli (microorganisms [2]): E. coli (M); Organism, effect: E. faecalis (microorganisms [2]): E. faecalis (A); Organism, effect: S. pneumoniae (microorganisms [2]; S. pneumoniae): S. pneumoniae (R)"
PF-063: peptide having multiple activities (IAAIIVLVLFQKGLLQIFNWILIQLQ; Peptide with targeting and/or antimicrobial activity),G B,MRSA (M),S. epidermidis (R),M. luteus (R),C. jeikeium (D),"Organism, effect: B. subtilis (microorganisms [2]): B. subtilis (C); Organism, effect: C. jejuni (microorganisms [2]): C. jejuni (D); Organism, effect: P. aeruginosa (microorganisms [2]): P. aeruginosa (A); Organism, effect: S. pneumoniae (microorganisms [2]; S. pneumoniae): S. pneumoniae (D)"
PF-067: peptide having multiple activities (DLIVKVHICFVVKTASGYCYLNKREAQAAI; Peptide with targeting and/or antimicrobial activity),G B,MRSA (M),S. epidermidis (D),M. luteus (R),C. jeikeium (D),"Organism, effect: B. subtilis (microorganisms [2]): B. subtilis (C); Organism, effect: C. jejuni (microorganisms [2]): C. jejuni (D); Organism, effect: P. aeruginosa (microorganisms [2]): P. aeruginosa (A); Organism, effect: S. pneumoniae (microorganisms [2]; S. pneumoniae): S. pneumoniae (D)"
PF-076: peptide having multiple activities (chain 1 LYQYELLSKEEYLKCTLIINQRRNEQK; chain 2 LYQYELLSKEEYLKCTLIINQRRNEQK; Peptide with targeting and/or antimicrobial activity),G B,MRSA (R),S. epidermidis (S),M. luteus (A),C. jeikeium (A),
PF-125: peptide having multiple activities (chain 1 YVVGALVILAVAGLIYSMLRKA; chain 2 YVVGALVILAVAGLIYSMLRKA; Peptide with targeting and/or antimicrobial activity),G B,,S. epidermidis (D),M. luteus (C),,
PF-699 (GRAGVKCRRPTGR; Peptide with targeting and/or antimicrobial activity),,,,,,"Target(s) (microorganisms [3]): Mycobacteria spp; Organism, effect (microorganisms [2]; S. pneumoniae): S. pneumoniae (A)"
PF-700 (LNWPFTGR; Peptide with targeting and/or antimicrobial activity),,,,,,"Target(s) (microorganisms [3]): Mycobacteria spp; Organism, effect (microorganisms [2]; S. pneumoniae): S. pneumoniae (C)"
PF-702 (LSGRLAGRR; Peptide with targeting and/or antimicrobial activity),,,,,,"Target(s) (microorganisms [3]): Mycobacteria spp; Organism, effect (microorganisms [2]; S. pneumoniae): S. pneumoniae (H)"
PF-704 (APAARAAL; Peptide with targeting and/or antimicrobial activity),,,,,,"Target(s) (microorganisms [3]): Mycobacteria spp; Organism, effect (microorganisms [2]; S. pneumoniae): S. pneumoniae (C)"
